This passage reports EC50 results from US20230227435A1, “SMALL MOLECULE MODULATORS OF IL-17” (LEO PHARMA A/S, priority 2020, published 2023).

The target of the experiment is T1, human IL-17AA (Homo sapiens, UniProt Q16552).
T1 construct: host or cells: HEK (human embryonic kidney) cells
T1 sequence (Q16552 24-155) 1: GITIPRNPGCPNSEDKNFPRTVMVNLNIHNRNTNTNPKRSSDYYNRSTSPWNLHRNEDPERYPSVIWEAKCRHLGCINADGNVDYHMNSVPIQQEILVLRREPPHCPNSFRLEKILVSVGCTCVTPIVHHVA
T1 sequence (Q16552 24-155) 2: T1 sequence (Q16552 24-155) 1
The experiment is described as follows: IL-8 release assay in human epithelial keratinocytes adult (HEKa). The format is cell-based. Conditions: HEKa cells; 3 ng/mL HEK-human IL-17AA + 10 ng/mL human TNFalpha; 68-72 hours; IL-8 by HTRF; read-out: Rel EC50 IL-8 release assay. The protocol: Example 8: IL-8 Release Assay in Human Epithelial Keratinocytes Adult (HEKa)
Keratinocytes were seeded at 3500 cells/well in 384-well ViewPlates (Perkin Elmer) in Epilife medium (Thermo Fisher) containing human keratinocyte growth supplement (HKGS) without hydrocortisone and incubated in a humid incubator at 37° C., 5% CO2, overnight. The following day growth medium was removed and 25 μl fresh Epilife medium was added. 75 nL test compound in100% DMSO was added into each well reserved for test compounds, by the use of acoustic pipetting. The remaining wells received an equal volume of DMSO only, as vehicle control, or terfenadine in DMSO, as a positive control for any cytotoxic compounds. Subsequently, another 25 μL Epilife medium was added to each well. Finally, wells containing test compounds and wells prepared to yield maximum stimulation received 25 μL of 9 ng/mL recombinant, human embryonic kidney cell (HEK)-derived human IL-17AA+30 ng/mL human TNF-alpha, in Epilife medium. Wells prepared to define 100% inhibition of IL-17 effects received 25 μL of 30 ng/mL human TNF-alpha alone, in Epilife medium. Final concentrations were 3 ng/mL HEK-human IL-17AA+10 ng/mL human TNFalpha (maximum stimulation) and 10 ng/mL human TNFalpha alone (100% inhibition, Emax), respectively. Cells were incubated for 68-72 hours in the incubator. IL-8 released from the cells was measured by the use of a commercial homogenous time-resolved fluorescence (HTRF) assay (CisBio). 2 μL cell culture supernatant was transferred to a 384-well Proxiplate. 5 μL HTRF reagent was added and the plates were incubated sealed in the dark for 3-22 hours at room temperature. Time-resolved fluorescence was read at 665 vs 620 nm, with excitation at 320 nm, and IL-8 levels were calculated as percent of controls. Reduction of the amount of secreted IL-8 indicates decreased IL-17 signaling. Concentration response curves were fitted by the use of a four-parameter logistic equation. Relative IC50 and Emax were reported from curves showing acceptable fit (r^2>0.9). Cytotoxicity was measured in the cell-containing Viewplates following addition of 7 μL PrestoBlue (Thermo Fisher) and incubation for 2.5-3 hours at room temperature, by measuring fluorescence at 615 nm (excitation at 535 nm). Fluorescence was directly proportional to the amount of metabolic activity. Reduction of fluorescence signal indicated cytotoxicity.
Compounds of the present invention were tested in the IL-8 release assay in human epithelial keratinocytes.
Regarding `Cc1cc(-c2nnc(C(C(=O)Nc3ccc(-c4c(C)n[nH]c4C)cc3)C(C3CC3)C3CC3)[nH]2)n(C)n1` (centres unmarked) [Example 47, 3,3-dicyclopropyl-N-[4-(3,5-dimethyl-1H-pyrazol-4-yl)phenyl]-2-[5-(2,5-dimethylpyrazol-3-yl)-4H-1,2,4-triazol-3-yl]propanamide], the EC50 stood at 83 nM.
The same measure for `COc1cncc(-c2nnc(C(C(=O)Nc3ccc(-c4c(C)n[nH]c4C)cc3)C(C3CC3)C3CC3)[nH]2)c1` (centres unmarked) [Example 48, 3,3-dicyclopropyl-N-[4-(3,5-dimethyl-1H-pyrazol-4-yl)phenyl]-2-[5-(5-methoxy-3-pyridyl)-4H-1,2,4-triazol-3-yl]propanamide]: 130 nM; for `COc1ncccc1-c1nnc(C(C(=O)Nc2ccc(-c3c(C)n[nH]c3C)cc2)C(C2CC2)C2CC2)[nH]1` (centres unmarked) [Example 49, 3,3-dicyclopropyl-N-[4-(3,5-dimethyl-1H-pyrazol-4-yl)phenyl]-2-[5-(2-methoxy-3-pyridyl)-4H-1,2,4-triazol-3-yl]propanamide]: 460 nM.
Consider `Cc1cncc(-c2nnc(C(C(=O)Nc3ccc(-c4c(C)n[nH]c4C)cc3)C(C3CC3)C3CC3)[nH]2)c1` (centres unmarked) [Example 50, 3,3-dicyclopropyl-N-[4-(3,5-dimethyl-1H-pyrazol-4-yl)phenyl]-2-[5-(5-methyl-3-pyridyl)-4H-1,2,4-triazol-3-yl]propanamide], for which the EC50 stood at 110 nM.
Regarding `CCOc1cc(-c2nnc(C(C(=O)Nc3ccc(-c4c(C)n[nH]c4C)cc3)C(C3CC3)C3CC3)[nH]2)ccn1` (centres unmarked) [Example 51, 3,3-dicyclopropyl-N-[4-(3,5-dimethyl-1H-pyrazol-4-yl)phenyl]-2-[5-(2-ethoxy-4-pyridyl)-4H-1,2,4-triazol-3-yl]propanamide], the concentration for a half-maximal effect (EC50) is 100 nM.
As to `Cc1ncccc1-c1nnc(C(C(=O)Nc2ccc(-c3c(C)n[nH]c3C)cc2)C(C2CC2)C2CC2)[nH]1` (centres unmarked) [Example 52, 3,3-dicyclopropyl-N-[4-(3,5-dimethyl-1H-pyrazol-4-yl)phenyl]-2-[5-(2-methyl-3-pyridyl)-4H-1,2,4-triazol-3-yl]propanamide], the EC50 stood at 180 nM.
`Cc1ccncc1-c1nnc(C(C(=O)Nc2ccc(-c3c(C)n[nH]c3C)cc2)C(C2CC2)C2CC2)[nH]1` (centres unmarked) [Example 53, 3,3-dicyclopropyl-N-[4-(3,5-dimethyl-1H-pyrazol-4-yl)phenyl]-2-[5-(4-methyl-3-pyridyl)-4H-1,2,4-triazol-3-yl]propanamide]: the half-maximal effective concentration (EC50) turned out to be 73 nM.
Regarding `Cc1n[nH]c(C)c1-c1ccc(NC(=O)C(c2nnc(-c3ccnc(C(F)(F)F)c3)[nH]2)C(C2CC2)C2CC2)cc1` (centres unmarked) [Example 54, 3,3-dicyclopropyl-N-[4-(3,5-dimethyl-1H-pyrazol-4-yl)phenyl]-2-[5-[2-(trifluoromethyl)-4-pyridyl]-4H-1,2,4-triazol-3-yl]propanamide], the EC50 came out at 76 nM.
The value for `Cc1n[nH]c(C)c1-c1ccc(NC(=O)C(c2nnc(-c3ccnc(C(F)F)c3)[nH]2)C(C2CC2)C2CC2)cc1` (centres unmarked) [Example 55, 3,3-dicyclopropyl-2-[5-[2-(difluoromethyl)-4-pyridyl]-4H-1,2,4-triazol-3-yl]-N-[4-(3,5-dimethyl-1H-pyrazol-4-yl)phenyl]propanamide] was 27 nM; that for `COc1ccncc1-c1nnc(C(C(=O)Nc2ccc(-c3c(C)n[nH]c3C)cc2)C(C2CC2)C2CC2)[nH]1` (centres unmarked) [Example 56, 3,3-dicyclopropyl-N-[4-(3,5-dimethyl-1H-pyrazol-4-yl)phenyl]-2-[5-(4-methoxy-3-pyridyl)-4H-1,2,4-triazol-3-yl]propanamide] was 320 nM; that for `Cc1n[nH]c(C)c1-c1ccc(NC(=O)C(c2nnc(-c3ccnn3CCCO)[nH]2)C(C2CC2)C2CC2)cc1` (centres unmarked) [Example 57, 3,3-dicyclopropyl-N-[4-(3,5-dimethyl-1H-pyrazol-4-yl)phenyl]-2-[5-[2-(3-hydroxypropyl)pyrazol-3-yl]-4H-1,2,4-triazol-3-yl]propanamide] was 59 nM.
Take `Cc1n[nH]c(C)c1-c1ccc(NC(=O)C(c2nnc(-c3ccccn3)[nH]2)C(C2CC2)C2CC2)cc1` (centres unmarked) [Example 58, 3,3-dicyclopropyl-N-[4-(3,5-dimethyl-1H-pyrazol-4-yl)phenyl]-2-[5-(2-pyridyl)-4H-1,2,4-triazol-3-yl]propanamide]: the EC50 was 310 nM.
As for `Cc1cccc(-c2nnc(C(C(=O)Nc3ccc(-c4c(C)n[nH]c4C)cc3)C(C3CC3)C3CC3)[nH]2)n1` (centres unmarked) [Example 59, 3,3-dicyclopropyl-N-[4-(3,5-dimethyl-1H-pyrazol-4-yl)phenyl]-2-[5-(6-methyl-2-pyridyl)-4H-1,2,4-triazol-3-yl]propanamide], the half-maximal effective concentration (EC50) stood at 45 nM.
With `Cc1cccnc1-c1nnc(C(C(=O)Nc2ccc(-c3c(C)n[nH]c3C)cc2)C(C2CC2)C2CC2)[nH]1` (centres unmarked) [Example 60, 3,3-dicyclopropyl-N-[4-(3,5-dimethyl-1H-pyrazol-4-yl)phenyl]-2-[5-(3-methyl-2-pyridyl)-4H-1,2,4-triazol-3-yl]propanamide], the EC50 was 250 nM.
Turning to `Cc1n[nH]c(C)c1-c1ccc(NC(=O)C(c2nnc(C3CCOCC3)[nH]2)C(C2CC2)C2CC2)cc1` (centres unmarked) [Example 61, 3,3-dicyclopropyl-N-[4-(3,5-dimethyl-1H-pyrazol-4-yl)phenyl]-2-(5-tetrahydropyran-4-yl-4H-1,2,4-triazol-3-yl)propanamide], the EC50 was 2700 nM.
Regarding `Cc1n[nH]c(C)c1-c1ccc(NC(=O)C(c2nnc(C3CCOC3)[nH]2)C(C2CC2)C2CC2)cc1` (centres unmarked) [Example 62, 3,3-dicyclopropyl-N-[4-(3,5-dimethyl-1H-pyrazol-4-yl)phenyl]-2-(5-tetrahydrofuran-3-yl-4H-1,2,4-triazol-3-yl)propanamide], the EC50 was found to be 1600 nM.
For `Cc1n[nH]c(C)c1-c1ccc(NC(=O)C(c2nnc(-c3ccnc(C(F)F)c3)[nH]2)C2CCC(F)(F)CC2)cc1` (centres unmarked) [Example 63, 2-(4,4-difluorocyclohexyl)-2-[5-[2-(difluoromethyl)-4-pyridyl]-4H-1,2,4-triazol-3-yl]-N-[4-(3,5-dimethyl-1H-pyrazol-4-yl)phenyl]acetamide], the concentration for a half-maximal effect (EC50) amounted to 200 nM.
The value for `Cc1cc(-c2nnc(C(C(=O)Nc3ccc(-c4c(C)n[nH]c4C)cc3)C3CCC(F)(F)CC3)[nH]2)ccn1` (centres unmarked) [Example 65, 2-(4,4-difluorocyclohexyl)-N-[4-(3,5-dimethyl-1H-pyrazol-4-yl)phenyl]-2-[5-(2-methyl-4-pyridyl)-4H-1,2,4-triazol-3-yl]acetamide] was 520 nM; that for `COc1cc(-c2nnc(C(C(=O)Nc3ccc(-c4c(C)n[nH]c4C)cc3)C3CCC(F)(F)CC3)[nH]2)ccn1` (centres unmarked) [Example 66, 2-(4,4-difluorocyclohexyl)-N-[4-(3,5-dimethyl-1H-pyrazol-4-yl)phenyl]-2-[5-(2-methoxy-4-pyridyl)-4H-1,2,4-triazol-3-yl]acetamide] was 640 nM; that for `CCn1nccc1-c1cnc(C(C(=O)Nc2ccc(-c3c(C)n[nH]c3C)cc2)C(C2CC2)C2CC2)[nH]1` (centres unmarked) [Example 67, 3,3-dicyclopropyl-N-[4-(3,5-dimethyl-1H-pyrazol-4-yl)phenyl]-2-[5-(2-ethylpyrazol-3-yl)-1H-imidazol-2-yl]propanamide] was 210 nM.
Consider `Cc1n[nH]c(C)c1-c1ccc(NC(=O)C(c2ncc(-c3ccnn3C(C)C)[nH]2)C(C2CC2)C2CC2)cc1` (centres unmarked) [Example 68, 3,3-dicyclopropyl-N-[4-(3,5-dimethyl-1H-pyrazol-4-yl)phenyl]-2-[5-(2-isopropylpyrazol-3-yl)-1H-imidazol-2-yl]propanamide], for which the EC50 was 170 nM.
The same measure for `COc1cc(-c2cnc(C(C(=O)Nc3ccc(-c4c(C)n[nH]c4C)cc3)C(C3CC3)C3CC3)[nH]2)ccn1` (centres unmarked) [Example 69, 3,3-dicyclopropyl-N-[4-(3,5-dimethyl-1H-pyrazol-4-yl)phenyl]-2-[5-(2-methoxy-4-pyridyl)-1H-imidazol-2-yl]propanamide]: 490 nM; for `Cc1n[nH]c(C)c1-c1ccc(NC(=O)C(c2nc(F)c(-c3ccccc3)[nH]2)C(C2CC2)C2CC2)cc1` (centres unmarked) [Example 72, 3,3-dicyclopropyl-N-[4-(3,5-dimethyl-1H-pyrazol-4-yl)phenyl]-2-(4-fluoro-5-phenyl-1H-imidazol-2-yl)propanamide]: 260 nM.

One may read the EC50 as the concentration at which the effect is half-maximal.
